Test results: patent publication US6504057B2, “Fluorophenyl-substituted alkenylcarboxylic acid guanidides, process for their preparation, their use as a medicament or diagnostic, and medicament containing them” (Hoechst Aktiengesellschaft, priority 1995, dated 2003)
Counter-ions that a name gives are not always drawn.

Tested on: not given
Details: not given

SMILES	melting point [°C]
NC(N)=NC(=O)/C=C/c1cccc(F)c1 (as salt: hydrochloride) [Example 1, E-3-(3-Fluorophenyl)acrylic acid guanidide hydrochloride]	148
NC(N)=NC(=O)/C=C/c1ccccc1F (as salt: hydrochloride) [Example 4, E-3-(2-Fluorophenyl)acrylic acid guanidide hydrochloride]	243
C/C(=C\c1c(F)c(F)cc(F)c1F)C(=O)N=C(N)N (as salt: hydrochloride) [Example 9, E-3-(2,3,5,6-Tetrafluorophenyl)-2-methylacrylic acid guanidide hydrochloride]	138

Second part, the compound after the results:

melting point [°C]	SMILES
230	NC(N)=NC(=O)/C=C/c1cc(F)ccc1F (as salt: hydrochloride) [Example 2, E-3-(2,5-Difluorophenyl)acrylic acid guanidide hydrochloride]
235	NC(N)=NC(=O)/C=C/c1cc(F)cc(F)c1 (as salt: hydrochloride) [Example 3, E-3-(3,5-Difluorophenyl) acrylic acid guanidide hydrochloride]
178	C/C(=C\c1cc(F)cc(F)c1)C(=O)N=C(N)N (as salt: hydrochloride) [Example 5, E-3-(3,5-Difluorophenyl)-2-methylacrylic acid guanidide hydrochloride]

Tested on: rat heart
Details: isolated rat heart; cited from earlier work

SMILES	suppression of artificially produced ventricular fibrillation
N=C(N)NC(=O)c1nc(Cl)c(N)nc1N [amiloride]	completely suppressed
CCN(c1nc(N)c(C(=O)NC(=N)N)nc1Cl)C(C)C [ethylisopropylamiloride]	even more potent than amiloride
